The values that follow come from paper PMC6678097, “Machilin A Inhibits Tumor Growth and Macrophage M2 Polarization Through the Reduction of Lactic Acid” (Cancers, 2019).

Structures are written as SMILES.

The test system of one data set is HUVECs. The experiment in a line: Growth (MTT) and tube formation of endothelial cells, direct treatment. The class given is cell-based, human. The settings on record: 24 h. As to the method: Figure S10. The viabilities of HUVECs and RAW264.7 cells on MA. (A) HUVECs were treated with indicated concentration of machilin A for 24 h. The viabilities of cells were evaluated by MTT assay.
(B ) HUVECs seeded to the Matrigel-coated wells treated with machilin A for 24 h. ( C) Raw 264.7 macrophage cells were treated with indicated concentration of machilin A for 24 h. The viabilities of cells were evaluated by MTT assay.
(1 picture or pasted object on this page, not shown here)

Data set [1] deals with T1, purified recombinant LDHA (Homo sapiens, UniProt P00338).
T1 construct: made in house
The experiment in a line: In vitro LDH activity assay with purified recombinant LDHA. The class given is biochemical. As to the method: (§1) A purification of recombinant LDHA was performed as described previously. LDH activity was determined by measuring the decrease of absorbance at 340 nm due to the oxidation of NADH in 20 mM HEPES-K^+, 0.05% bovine serum albumin (BSA), 20 μM NADH, and 2 mM pyruvate (Sigma-Aldrich, St. Louis, MO, USA) at a pH of 7.2 using a spectrofluorometer (Spectramax M2, Molecular Devices, San Jose, CA, USA; excitation 340 nm; emission 460 nm), as described previously. Ten nanograms of recombinant LDHA protein were used in the in vitro LDH activity assay. One microgram of total protein from cell or tissue lysates was used for intracellular or in vivo LDH assays.

Data set [2] has as its system LDHA. The experiment in a line: LDHA expression, western blot. Particulars: normoxic and hypoxic conditions. The class given is cell-based, human. As to the method:
Total protein was extracted from each cell using 1% NP-40 lysis buffer (150 mM NaCl, 10 mM HEPES (pH 7.45), 1% NP-40, 5 mM Na pyrophosphate, 5 mM NaF, 2 mM Na3VO4) containing protease inhibitor cocktail tablets (Roche, Basel, Switzerland). Equal amounts (20 μg) of protein from each sample were fractionated using SDS-PAGE and the protein was then transferred onto nitrocellulose membranes (Hybond ECL; GE Healthcare, Chicago, IL, USA) using electrophoresis. The membranes were blocked for 1 h at room temperature using 5% non-fat dry milk and were then incubated with primary antibodies specific to the target protein at 4 °C overnight. The membranes were washed three times, and incubated with the respective secondary antibodies conjugated with horseradish peroxidase. The specific bands of targeted proteins were detected using ECL Plus (GE Healthcare, Chicago, IL, USA).
A general note: Immunoblotting shows a protein as a band on a membrane.

In data set [3] the test system is human liver cytochrome P450 2B6. Particulars: cited from earlier work.
Data set [4] in a line: In vivo toxicity to liver and kidney (serum AST, ALT, creatinine, BUN). The settings on record: mice with allograft tumors. As to the method: LLC and CT26 cells were suspended separately in PBS (5 × 10^5 cells/100 µL PBS) and inoculated in subcutaneously on the back of 7-week-old C57BL/6 mice and BALB/c mice respectively (Orient Bio Inc., Seongnam, Korea; n = 7). One day after the inoculation with tumor cells, mice of the control group (n = 7) were intraperitoneally administrated 100 µL of PBS per day for 18 days. Each of the MA-treated mice were intraperitoneally administrated 0.02, 0.2, or 1 mg MA, respectively, in 100 µL PBS per 20 g body weight, each day for 18 days. All mice were euthanized 19 days after inoculation with the tumor cells, and the tumors were excised and weighed. Length (l) and width (w) of each tumor were measured using a caliper, and the respective volume (V) was calculated according to the formula V = [(l × w^2)/2]. Tumors were immediately removed from euthanized mice and prepared for histological examinations. To test liver and kidney toxicity of MA, at the end of the in vivo allograft experiment blood was collected from each mouse and serum was separated. Biochemical analyses of aspartate aminotransferase (AST), alanine aminotransferase (ALT), creatinine, and blood urea nitrogen (BUN) were performed using a commercial service (Green Cross Co., Yongin, Korea). […]

Data set [5] deals with LDHA (Homo sapiens, UniProt P00338). Nature of the data set: Intracellular LDH activity in lysates of MA-treated cancer cells. The class given is cell-based. Further details: One microgram of total protein from cell or tissue lysates was used for intracellular or in vivo LDH assays; endogenous in cells; host or cells: WiDr, DLD-1, RKO, HT29, MCF7, Huh-7, HepG2, Hep3B, HCC-95, NCI-H1793. Particulars: for IC50: normoxic. On the procedure:
as §1

As to `C[C@H](Cc1ccc2c(c1)OCO2)[C@@H](C)Cc1ccc2c(c1)OCO2` [MA, bis(3,4-methylenedioxy)-8,8’-lignan], in the data set on HUVECs, the “growth and tube formation of endothelial cells” value is listed as “did not directly inhibit”. In addition, the “mode of inhibition of LDHA activity” value in data set [1] (data not shown) was “competitive inhibition”. In addition, the IC50 came out at 84 µM in data set [1] (purified recombinant LDHA, read-out: inhibitory concentration (IC50) for LDHA activity); 129 ± 24.8 µM at LDHA [5] (DLD-1 cells); 112 ± 10.1 µM against LDHA [5] (HCC-95 cells); 48.4 ± 4.33 µM on LDHA [5] (HT29 cells); 48.3 ± 4.13 µM against LDHA [5] (Hep3B cells); 101 ± 40.5 µM against LDHA [5] (HepG2 cells). Also, the IC50 against LDHA [5] (Huh7 cells) stood at 85.1 ± 20.9 µM; against LDHA [5] (MCF-7 cells), 61.2 ± 3.02 µM; against LDHA [5] (NCI-H1793 cells), 64 ± 5.61 µM; against LDHA [5] (RKO cells), 73.7 ± 20.7 µM; against LDHA [5] (WiDr cells), 61.9 ± 8.02 µM. The “expression of LDHA” value in the data set with LDHA [2] is reported as “not affected”. Besides, in data set [3], the “inhibitory effect on drug metabolism” value is “selective inhibitory effect”. Also, the “in vivo toxicity to liver and kidney” value in data set [4] is reported as “no significant toxic effect”. Moreover, the “increase of LDHA activity in hypoxic condition” value on LDHA [5] (HT29, machilin A 30 μM, hypoxia) was “significantly reduced”.
